# Measured values taken from US20240383954A1, “PEPTIDE INHIBITORS OF INTERLEUKIN-23 RECEPTOR AND THEIR USE TO TREAT INFLAMMATORY DISEASES” (Janssen Biotech, Inc., priority 2020, published 2024).
# Positions of bridges follow the written chain, without caps; N, C: chain ends. Non-standard residues stand in square brackets, D forms with d. Residues, ends and D or L forms follow the SMILES beside them. Trp(7-Me) = Cc1cccc2c(C[C@H](N)C(=O)O)c[nH]c12; 2Nal = N[C@@H](Cc1ccc2ccccc2c1)C(=O)O; AEF = NCCOc1ccc(C[C@H](N)C(=O)O)cc1; αMeF = C[C@](N)(Cc1ccccc1)C(=O)O; Pen = CC(C)(S)[C@H](N)C(=O)O; Ac5c = NC1(C(=O)O)CCCC1; Thp = NC1(C(=O)O)CCOCC1
# Biological target: IL-23R (Homo sapiens, UniProt Q5VWK5)
# Assay: cell-based
# Details: PBMC pSTAT3 IC50 (nM), PBMCs from healthy donors, IL-23 5 ng/mL, 30 minutes, phosphorylated STAT3
# 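Note: cryopreserved PBMCs stimulated at 37 °C in 5% CO2, then lysed, with phosphorylated STAT3 quantified in lysates using a phospho-STAT panel kit.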
# IL-23R, sequence (Q5VWK5 24-629): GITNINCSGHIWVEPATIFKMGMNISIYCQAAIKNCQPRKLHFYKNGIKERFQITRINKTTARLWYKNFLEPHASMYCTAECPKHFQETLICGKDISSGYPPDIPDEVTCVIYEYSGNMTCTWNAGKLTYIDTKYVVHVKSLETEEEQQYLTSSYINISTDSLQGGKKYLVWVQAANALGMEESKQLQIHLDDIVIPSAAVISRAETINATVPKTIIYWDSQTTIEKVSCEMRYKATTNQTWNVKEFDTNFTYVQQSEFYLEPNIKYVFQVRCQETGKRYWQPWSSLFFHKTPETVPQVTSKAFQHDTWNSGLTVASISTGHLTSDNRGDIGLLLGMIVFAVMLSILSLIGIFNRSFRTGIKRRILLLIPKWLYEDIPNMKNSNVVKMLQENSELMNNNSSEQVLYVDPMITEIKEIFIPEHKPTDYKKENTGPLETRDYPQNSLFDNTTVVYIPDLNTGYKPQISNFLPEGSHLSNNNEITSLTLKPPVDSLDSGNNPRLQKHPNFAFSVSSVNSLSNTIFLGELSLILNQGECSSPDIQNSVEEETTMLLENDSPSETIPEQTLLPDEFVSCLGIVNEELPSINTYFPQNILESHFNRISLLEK
row,Compound,IC50
1,"CC(=O)NCCCC[C@H](NC(=O)[C@](C)(CCCCN)NC(=O)[C@H](Cc1ccc2ccccc2c1)NC(=O)[C@H](Cc1ccc(OCCN)cc1)NC(=O)[C@H]1NC(=O)[C@H](CCC(N)=O)NC(=O)[C@H](Cc2c[nH]c3c(C)cccc23)NC(=O)[C@H]([C@@H](C)O)NC(=O)[C@H](CC(N)=O)NC(=O)[C@@H](NC(C)=O)C(C)(C)SSC1(C)C)C(=O)N[C@@H](CC(N)=O)C(=O)NC1(C(N)=O)CCOCC1 [Compound 87, Ac-[Pen]-N-T-[W(7-Me)]-Q-[Pen]-Phe[4-(2-aminoethoxy)]-[2-Nal]-[a-MeLys]-[Lys(Ac)]-N-[THP]-NH2]",3.6 nM
2,"CC(=O)NCCCC[C@@H]1NC(=O)[C@H](Cc2c[nH]c3ccccc23)NC(=O)[C@H]([C@@H](C)O)NC(=O)[C@H](CC(N)=O)NC(=O)[C@@H](NC(=O)[C@@H](CCCNC(=N)N)NC(C)=O)C(C)(C)SSC(C)(C)[C@@H](C(=O)N[C@@H](Cc2ccc(OCCN)cc2)C(=O)N[C@@H](Cc2ccc3ccccc3c2)C(=O)NC2(C(=O)N[C@@H](CCC(=O)O)C(=O)N[C@@H](CC(N)=O)C(=O)NC3(C(N)=O)CCOCC3)CCCC2)NC1=O [Compound 88, Ac-[(D)Arg]-[Pen]-N-T-W-[Lys(Ac)]-[Pen]-Phe[4-(2-aminoethoxy)]-[2-Nal]-[Acvc]-E-N-[THP]-NH2] (Ac-[dR][Pen]NTWK(Ac)[Pen][AEF][2Nal][Ac5c]EN[Thp]-NH2; disulfide 2-7)",3.7 nM
3,"CC(=O)NCCCC[C@H](NC(=O)[C@](C)(CCCCN)NC(=O)[C@H](Cc1ccc2ccccc2c1)NC(=O)[C@H](Cc1ccc(OCCN)cc1)NC(=O)[C@H]1NC(=O)[C@H](CCC(N)=O)NC(=O)[C@H](Cc2c[nH]c3c(C)cccc23)NC(=O)[C@H]([C@@H](C)O)NC(=O)[C@H](CC(N)=O)NC(=O)[C@@H](NC(C)=O)C(C)(C)SSC1(C)C)C(=O)N[C@@H](CC(N)=O)C(=O)N[C@@](C)(Cc1ccccc1)C(N)=O [Compound 89, Ac-[Pen]-N-T-[W(7-Me)]-Q-[Pen]-Phe[4-(2-aminoethoxy)]-[2-Nal]-[a-MeLys]-[Lys(Ac)]-N-[a-MePhe]-NH2]",12 nM
4,"CC(=O)N[C@H](CCCNC(=N)N)C(=O)N[C@@H]1C(=O)N[C@@H](CC(N)=O)C(=O)N[C@@H]([C@@H](C)O)C(=O)N[C@@H](Cc2c[nH]c3c(C)cccc23)C(=O)N[C@@H](CCC(N)=O)C(=O)N[C@H](C(=O)N[C@@H](Cc2ccc(OCCN)cc2)C(=O)N[C@@H](Cc2ccc3ccccc3c2)C(=O)NC2(C(=O)N[C@@H](CCC(=O)O)C(=O)N[C@@H](CC(N)=O)C(=O)NC3(C(N)=O)CCOCC3)CCOCC2)C(C)(C)SSC1(C)C [Compound 90, Ac-[(D)Arg]-[Pen]-N-T-[W(7-Me)]-Q-[Pen]-Phe[4-(2-aminoethoxy)]-[2-Nal]-[THP]-E-N-[THP]-NH2] (Ac-[dR][Pen]NT[Trp(7-Me)]Q[Pen][AEF][2Nal][Thp]EN[Thp]-NH2; disulfide 2-7)",3.7 nM
5,"CC(=O)N[C@H](CCCNC(=N)N)C(=O)N[C@@H]1C(=O)N[C@@H](CC(N)=O)C(=O)N[C@@H]([C@@H](C)O)C(=O)N[C@@H](Cc2c[nH]c3c(C)cccc23)C(=O)N[C@@H](CCC(N)=O)C(=O)N[C@H](C(=O)N[C@@H](Cc2ccc(OCCN)cc2)C(=O)N[C@@H](Cc2ccc3ccccc3c2)C(=O)NC2(C(=O)N[C@@H](CCC(=O)O)C(=O)N[C@@H](CC(N)=O)C(=O)N[C@@](C)(Cc3ccccc3)C(N)=O)CCOCC2)C(C)(C)SSC1(C)C [Compound 91, Ac-[(D)Arg]-[Pen]-N-T-[W(7-Me)]-Q-[Pen]-Phe[4-(2-aminoethoxy)]-[2-Nal]-[THP]-E-N-[a-MePhe]-NH2] (Ac-[dR][Pen]NT[Trp(7-Me)]Q[Pen][AEF][2Nal][Thp]EN[αMeF]-NH2; disulfide 2-7)",4.1 nM
6,"CC(=O)NCCCC[C@@H]1NC(=O)[C@H](Cc2c[nH]c3c(C)cccc23)NC(=O)[C@H]([C@@H](C)O)NC(=O)[C@H](CC(N)=O)NC(=O)[C@@H](NC(=O)[C@@H](CCCNC(=N)N)NC(C)=O)C(C)(C)SSC(C)(C)[C@@H](C(=O)N[C@@H](Cc2ccc(OCCN)cc2)C(=O)N[C@@H](Cc2ccc3ccccc3c2)C(=O)NC2(C(=O)N[C@@H](CCC(=O)O)C(=O)N[C@@H](CC(N)=O)C(=O)NC3(C(N)=O)CCOCC3)CCOCC2)NC1=O [Compound 92, Ac-[(D)Arg]-[Pen]-N-T-[W(7-Me)]-[Lys(Ac)]-[Pen]-Phe[4-(2-aminoethoxy)]-[2-Nal]-[THP]-E-N-[THP]-NH2] (Ac-[dR][Pen]NT[Trp(7-Me)]K(Ac)[Pen][AEF][2Nal][Thp]EN[Thp]-NH2; disulfide 2-7)",3.3 nM
7,"CC(=O)N[C@H](CCCNC(=N)N)C(=O)N[C@@H]1C(=O)N[C@@H](CC(N)=O)C(=O)N[C@@H]([C@@H](C)O)C(=O)N[C@@H](Cc2c[nH]c3c(C)cccc23)C(=O)N[C@@H](CCC(N)=O)C(=O)N[C@H](C(=O)N[C@@H](Cc2ccc(OCCN)cc2)C(=O)N[C@@H](Cc2ccc3ccccc3c2)C(=O)NC2(C(=O)N[C@@H](CCC(=O)O)C(=O)N[C@@H](CC(N)=O)C(=O)N[C@@](C)(Cc3ccccc3)C(N)=O)CCCC2)C(C)(C)SSC1(C)C [Compound 93, Ac-[(D)Arg]-[Pen]-N-T-[W(7-Me)]-Q-[Pen]-Phe[4-(2-aminoethoxy)]-[2-Nal]-[Acvc]-E-N-[a-MePhe]-NH2] (Ac-[dR][Pen]NT[Trp(7-Me)]Q[Pen][AEF][2Nal][Ac5c]EN[αMeF]-NH2; disulfide 2-7)",4.6 nM
8,"CC(=O)NCCCC[C@@H]1NC(=O)[C@H](Cc2c[nH]c3c(C)cccc23)NC(=O)[C@H]([C@@H](C)O)NC(=O)[C@H](CC(N)=O)NC(=O)[C@@H](NC(=O)[C@@H](CCCNC(=N)N)NC(C)=O)C(C)(C)SSC(C)(C)[C@@H](C(=O)N[C@@H](Cc2ccc(OCCN)cc2)C(=O)N[C@@H](Cc2ccc3ccccc3c2)C(=O)NC2(C(=O)N[C@@H](CCC(=O)O)C(=O)N[C@@H](CC(N)=O)C(=O)N[C@@](C)(Cc3ccccc3)C(N)=O)CCCC2)NC1=O [Compound 94, Ac-[(D)Arg]-[Pen]-N-T-[W(7-Me)]-[Lys(Ac)]-[Pen]-Phe[4-(2-aminoethoxy)]-[2-Nal]-[Acvc]-E-N-[a-MePhe]-NH2] (Ac-[dR][Pen]NT[Trp(7-Me)]K(Ac)[Pen][AEF][2Nal][Ac5c]EN[αMeF]-NH2; disulfide 2-7)",12 nM
9,"CC(=O)NCCCC[C@@H]1NC(=O)[C@H](Cc2c[nH]c3ccccc23)NC(=O)[C@H]([C@@H](C)O)NC(=O)[C@H](CC(N)=O)NC(=O)[C@@H](NC(C)=O)C(C)(C)SSC(C)(C)[C@@H](C(=O)N[C@@H](Cc2ccc(OCCN)cc2)C(=O)N[C@@H](Cc2ccc3ccccc3c2)C(=O)N[C@@](C)(CCCCN)C(=O)N[C@@H](CCCCNC(C)=O)C(=O)N[C@@H](CC(N)=O)C(=O)NC2(C(N)=O)CCOCC2)NC1=O [Compound 95, Ac-[Pen]-N-T-W-[Lys(Ac)]-[Pen]-Phe[4-(2-aminoethoxy)]-[2-Nal]-[a-MeLys]-[Lys(Ac)]-N-[THP]-NH2]",22 nM
10,"CC(=O)N[C@H](CCCNC(=N)N)C(=O)N[C@@H]1C(=O)N[C@@H](CCC(N)=O)C(=O)N[C@@H]([C@@H](C)O)C(=O)N[C@@H](Cc2c[nH]c3ccccc23)C(=O)N[C@@H](CCC(N)=O)C(=O)N[C@H](C(=O)N[C@@H](Cc2ccc(OCCN)cc2)C(=O)N[C@@H](Cc2ccc3ccccc3c2)C(=O)NC2(C(=O)N[C@@H](CCC(=O)O)C(=O)N[C@@H](CC(N)=O)C(=O)N[C@@](C)(Cc3ccccc3)C(N)=O)CCOCC2)C(C)(C)SSC1(C)C [Compound 97, Ac-[(D)Arg]-[Pen]-Q-T-W-Q-[Pen]-Phe[4-(2-aminoethoxy)]-[2-Nal]-[THP]-E-N-[a-MePhe]-NH2] (Ac-[dR][Pen]QTWQ[Pen][AEF][2Nal][Thp]EN[αMeF]-NH2; disulfide 2-7)",31 nM
11,"CC(=O)NCCCC[C@@H]1NC(=O)[C@H](Cc2c[nH]c3ccccc23)NC(=O)[C@H]([C@@H](C)O)NC(=O)[C@H](CC(N)=O)NC(=O)[C@@H](NC(C)=O)C(C)(C)SSC(C)(C)[C@@H](C(=O)N[C@@H](Cc2ccc(OCCN)cc2)C(=O)N[C@@H](Cc2ccc3ccccc3c2)C(=O)N[C@@](C)(CCCCN)C(=O)N[C@@H](CCCCNC(C)=O)C(=O)N[C@@H](CC(N)=O)C(=O)N[C@@](C)(Cc2ccccc2)C(N)=O)NC1=O [Compound 98, Ac-[Pen]-N-T-W-[Lys(Ac)]-[Pen]-Phe[4-(2-aminoethoxy)]-[2-Nal]-[a-MeLys]-[Lys(Ac)]-N-[a-MePhe]-NH2]",15 nM
12,"CC(=O)N[C@H](CCCNC(=N)N)C(=O)N[C@@H]1C(=O)N[C@@H](CC(N)=O)C(=O)N[C@@H]([C@@H](C)O)C(=O)N[C@@H](Cc2c[nH]c3c(C)cccc23)C(=O)N[C@@H](CCC(N)=O)C(=O)N[C@H](C(=O)N[C@@H](Cc2ccc(OCCN)cc2)C(=O)N[C@@H](Cc2ccc3ccccc3c2)C(=O)NC2(C(=O)N[C@@H](CCC(=O)O)C(=O)N[C@@H](CC(N)=O)C(=O)NC3(C(N)=O)CCOCC3)CCCC2)C(C)(C)SSC1(C)C [Compound 99, Ac-[(D)Arg]-[Pen]-N-T-[W(7-Me)]-Q-[Pen]-Phe[4-(2-aminoethoxy)]-[2-Nal]-[Acvc]-E-N-[THP]-NH2] (Ac-[dR][Pen]NT[Trp(7-Me)]Q[Pen][AEF][2Nal][Ac5c]EN[Thp]-NH2; disulfide 2-7)",4.2 nM
13,"CC(=O)NCCCC[C@@H]1NC(=O)[C@H](Cc2c[nH]c3c(C)cccc23)NC(=O)[C@H]([C@@H](C)O)NC(=O)[C@H](CC(N)=O)NC(=O)[C@@H](NC(C)=O)C(C)(C)SSC(C)(C)[C@@H](C(=O)N[C@@H](Cc2ccc(OCCN)cc2)C(=O)N[C@@H](Cc2ccc3ccccc3c2)C(=O)N[C@@](C)(CCCCN)C(=O)N[C@@H](CCCCNC(C)=O)C(=O)N[C@@H](CC(N)=O)C(=O)N[C@@](C)(Cc2ccccc2)C(=O)N[C@H](Cc2ccc(O)cc2)C(N)=O)NC1=O [Compound 100, Ac-[Pen]-N-T-[W(7-Me)]-[Lys(Ac)]-[Pen]-Phe[4-(2-aminoethoxy)]-[2-Nal]-[a-MeLys]-[Lys(Ac)]-N-[a-MePhe]-[(D)Tyr]-NH2]",21 nM
14,"CC(=O)NCCCC[C@@H]1NC(=O)[C@H](Cc2c[nH]c3c(C)cccc23)NC(=O)[C@H]([C@@H](C)O)NC(=O)[C@H](CC(N)=O)NC(=O)[C@@H](NC(=O)[C@@H](CCCNC(=N)N)NC(C)=O)C(C)(C)SSC(C)(C)[C@@H](C(=O)N[C@@H](Cc2ccc(OCCN)cc2)C(=O)N[C@@H](Cc2ccc3ccccc3c2)C(=O)NC2(C(=O)N[C@@H](CCC(=O)O)C(=O)N[C@@H](CC(N)=O)C(=O)NC3(C(N)=O)CCOCC3)CCCC2)NC1=O [Compound 101, Ac-[(D)Arg]-[Pen]-N-T-[W(7-Me)]-[Lys(Ac)]-[Pen]-Phe[4-(2-aminoethoxy)]-[2-Nal]-[Acvc]-E-N-[THP]-NH2] (Ac-[dR][Pen]NT[Trp(7-Me)]K(Ac)[Pen][AEF][2Nal][Ac5c]EN[Thp]-NH2; disulfide 2-7)",0.74 nM
